We go through one molecule from patent publication US20030225002A1, “Co-therapy for the treatment of migraine comprising anticonvulsant derivatives and anti-migraine agents” (priority 2002, published 2003).

For one test, the system named is seizures. The note with it: several rodent models of epilepsy; cited from earlier work.
In test [1] the test system is simple and complex partial seizures and secondarily generalized seizures. The note with it: clinical trials of human epilepsy; cited from earlier work.
Another test concerns subjects with migraine. In words: Clinical Study Trials #1 and #2: duration of migraine headaches, topiramate with triptan rescue therapy. In kind it is in vivo, human. The note with it: for Duration of Migraine Headaches, Baseline / Duration of Migraine Headaches, Double-Blind: triptan rescue therapy; for Duration of Migraine Headaches, Double-Blind: Double-Blind Phase; for Duration of Migraine Headaches, Difference: Double-Blind minus Baseline. The procedure:
The primary objective of these studies was to evaluate the safety and efficacy of three doses of topiramate (50, 100, and 200 mg/day) versus placebo in the prophylaxis of migraine based on the change in the monthly (28 day) migraine period rate from the Prospective Baselin,e Period to the Double-Blind Phase. The secondary objectives for the studies were to assess dose response relationship, and to evaluate the effect of prophylactic treatment with topiramate (50, 100, and 200 mg/day) versus placebo on Health-Related Quality of Life (HRQL).
The studies were randomized, double-blind, placebo-controlled, parallel-group, multicenter studies. Male and female subjects were randomized equally to the four treatment groups.
While the IHS criteria was used to establish the diagnosis at study entry, the evaluation of efficacy was based on migraine periods. A migraine period was defined as the length of time between the onset and cessation of painful migraine symptoms. This period could last up to, but no longer than, 24 hours. If the painful symptoms persisted more than 24 hours after their initial onset, this was considered to be a new, distinct migraine period. If symptoms recurred within 24 hours of the initial onset, this was considered part of the same, initial period.
Subjects who completed the Baseline Phase and met the entry criteria were randomized to one of four treatment groups: 50 mg/day topiramate, 100 mg/day topiramate, 200 mg/day topiramate or placebo. The Double-Blind Phase had two periods: Titration and Maintenance, which are described in more detail below.
The Titration Period immediately followed the Baseline Phase and extended for eight weeks (56 days). During this period, subjects randomized to topiramate were started at a dose of 25 mg/day and the daily dose was increased by 25 mg weekly until they reach their assigned dose (or maximum tolerated dose, whichever is less). From the third week of Titration until the end of the Maintenance Period, a maximum of two dose level reductions were permitted for unacceptable tolerability problems. If the subject was still in the Titration Period after a dose reduction, rechallenge may have occurred in an attempt to achieve the subject's assigned dose, and, if unsuccessful, the dose may have been reduced again to the original reduced dose. Subjects who had their study medication dose decreased twice, and were still experiencing unacceptable tolerability problems that warranted additional dose reductions, exited the study. Clinic visits occurred on Day 29 (Visit 3) and Day 57 (Visit 4/End of Titration).
During this 18-week period, the subjects remained on the dose of study medication reached at the end of the Titration Period (the assigned dose or the maximum tolerated dose). If the subject experienced unacceptable tolerability problems, the dose was reduced, only one dose reduction was permitted in the maintenance. No rechallenge was permitted during the Maintenance Period, so that subject continued on the reduced dose for the remainder of the period. Subjects who already had their study medication dose decreased by two levels, and were still experiencing unacceptable tolerability problems that warranted additional dose reductions exited the study. Clinic visits occurred on Day 85 (Visit 5), Day 113 (Visit 6), Day 141 (Visit 7) and Day 183 (Visit 8/ Double-Blind Final Visit or Early Withdrawal).
Subjects were randomized to one of four treatment groups: a) placebo, b) 50 mg/day topiramate, c) 100 mg/day topiramate, or d) 200 mg/day topiramate. All subjects received study medication in a b.i.d. dosing regimen except during the first week of Titration, during which they took single evening doses.
In keeping with good pain management practices, subjects enrolled in these studies were permitted to take acute abortive/rescue medication as indicated for the treatment of pain during migraine/headache attacks. […]

With `CC1(C)O[C@@H]2[C@@H](CO[C@@]3(COS(N)(=O)=O)OC(C)(C)O[C@@H]23)O1` [topiramate, 2,3:4,5-bis-O-(1-methylethylidene)-β-D-fructopyranose sulfamate], the Block of seizures entry in the test on seizures was “effectively block seizures”. Further, in test [1], the “Efficacy in treating simple and complex partial seizures and secondarily generalized seizures” value is on record as “effective as adjunctive therapy or as monotherapy”. In addition, the “Effect on duration of headaches (in words)” value in the test on subjects with migraine (200 mg topiramate treatment) is given as “duration of headaches increased”. In addition, the “Duration of Migraine Headaches, Baseline” value in the test with subjects with migraine (TPM 50 mg) was found to be 12.77 h; in the test on subjects with migraine (TPM 100 mg) it was 14.75 h; with subjects with migraine (TPM 200 mg), 10.84 h. Moreover, the “Duration of Migraine Headaches, Double-Blind” value was found to be 11.60 h in the test on subjects with migraine (TPM 50 mg), 13.17 h in the test on subjects with migraine (TPM 100 mg) and 12.05 h with subjects with migraine (TPM 200 mg). The “Duration of Migraine Headaches, Difference” value in the test on subjects with migraine (TPM 50 mg) is -1.17 h; in the test on subjects with migraine (TPM 100 mg), -1.59 h; in the test on subjects with migraine (TPM 200 mg), “+1.21 hours”. For the same molecule, the “Effect on duration of a migraine headache (in words)” value with subjects with migraine (topiramate with triptan rescue medications, groups taking 50 mg and 100 mg) was “numerically measurable decrease in the duration of a migraine headache”.
